Reference: patent US9682033B2, “Methods of treating postherpetic neuralgia with a topical formulation of a spiro-oxindole compound” (Teva Pharmaceuticals International GmbH, priority 2015, dated 2017)
Several values for one entry are separate records, joined by “and”; a condition that tells them apart may be missing. Equal entries are not always repeated. Entries after “also recorded” stand apart in the source; their conditions may differ. Where two headings read alike, the source gives them in different places.

Legend:
[1] = test system: cultured human lymphocytes; assay: In vitro chromosome aberration assay in cultured human lymphocytes (GLP); type: cell-based
Excerpt: (§1) The spiro-oxindole compound was not genotoxic in the standard battery of genotoxicity tests (GLP), including a bacterial reverse mutation assay, an in vitro chromosome aberration assay in cultured human lymphocytes, and an in vivo rat bone marrow micronucleus test.

[2] = test system: several CYP450 enzymes including CYP3A4; assay: In vitro CYP450 inhibition (human liver microsomes); type: in vitro ADME
Excerpt: However, the compound is also highly bound to constituents in human plasma, so distribution into hepatocytes may be hindered, reducing the inhibition potential. In vitro data using human cryopreserved hepatocytes have also shown that the spiro-oxindole compound metabolite (M3) is an inhibitor of CYP3A4 and CYP2C19. Therefore, certain medications that undergo major metabolism by CYP3A4 and CYP2C19 are excluded as concomitant medications during this study.

[3] = biological target: CYP450 2C9 (Homo sapiens, UniProt P11712); assay: Reaction phenotyping with recombinant human CYP450 enzymes: CYP2C9; type: in vitro ADME; conditions: recombinant human CYP450 2C9
[4] = test system: streptozotocin-induced neuropathic pain model; assay: Streptozotocin-induced neuropathic pain model, mechanical allodynia (paw withdrawal threshold); type: in vivo, rats; conditions: topical, diabetic neuropathic pain model
Excerpt: Topical 4% Test Pharmaceutical Composition was compared with lidocaine and diclofenac for relief of mechanical allodynia in the streptozotocin-induced neuropathic pain model in rats.

[5] = test system: rat hepatocytes; assay: In vitro metabolic stability in hepatocytes (rat); type: in vitro ADME; conditions: ^14C-spiro-oxindole compound
Excerpt: (§2) A total of 8 metabolites were identified in samples (in vitro and in vivo) from rats, dogs, and humans. All metabolites found in humans were also found in the Good Laboratory Practice (GLP) toxicology species, the rat. Following oral administration of spiro-oxindole compound to humans, spiro-oxindole compound and 3 of its metabolites (M1, M5, and M6) were measurable. A similar metabolic profile was observed following topical administration to humans, albeit at much lower plasma concentrations, except metabolite M1 was not detected following human topical administration.

[6] = 4-week (GLP) repeat-dose dermal toxicity study in minipigs; conditions: minipig, in vivo, topical or ocular, 30 mg/kg/day dermal, day 28; for AUC(0-t): read-out: AUC0-24 h
Protocol: Repeat-dose dermal toxicity of a pharmaceutical composition comprising the spiro-oxindole compound was evaluated in minipigs in a 7-day (non-GLP) dermal study and in a 4-week (GLP) dermal study with a 2-week recovery period. In addition, a dose range-finding (DRF) dermal study in minipigs was conducted to aid in dose selection for a 39-week dermal toxicity study in minipigs.
However, the vehicle ointment produced in all treatment groups transient, mild to moderate, and occasionally severe dermal irritation that returned to normal during the recovery period. This correlated with minimal epidermal hyperplasia observed microscopically in the treated skin across all groups.

[7] = Protein binding in dog plasma; type: in vitro ADME
[8] = test system: complete Freund's adjuvant (CFA) model of inflammatory pain; assay: Complete Freund's adjuvant (CFA) model of inflammatory pain; type: in vivo; conditions: rat, topical
[9] = Phototoxicity assays (in vitro or in vivo)
[10] = test system: dog hepatocytes; assay: In vitro metabolic stability in hepatocytes (dog); type: in vitro ADME; conditions: ^14C-spiro-oxindole compound
Excerpt: as §2

[11] = Protein binding in rat serum; type: in vitro ADME
[12] = biological target: NaV1.7 (Homo sapiens, UniProt Q15858); assay: In vitro electrophysiological studies: block of NaV1.7; type: biochemical; conditions: fold greater for the inactivated state
Excerpt: NaV1.7 is expressed primarily in the peripheral nervous system in both sensory and sympathetic neurons (Raymond, C. K., et al., op. cit.). Loss-of-function mutations in SCN9A (the gene encoding the alpha subunit of the NaV1.7 sodium channel) cause a human condition known as congenital indifference to pain characterized by an inability to perceive pain (Cox, J. J., et al., Nature (2006), 444:894-98; Goldberg, Y. P., et al., Clin Genet (2007), 71:311-9). Gain-of-function mutations in SCN9A are associated with inherited erythromelalgia (IEM) (Drenth, J. P., et al., J Invest Dermatology (2005), 124:1333-8), which is characterized by spontaneous or easily evoked severe pain. Furthermore, up to 29% of biopsy-proven cases of idiopathic small-fiber neuropathy manifesting mainly as distal severe pain (Faber, C. G., et al., Ann Neurol (2012), 71:26-39) are associated with gain-of-function NaV1.7 channel mutations.

[13] = test system: rat bone marrow; assay: In vivo rat bone marrow micronucleus test (GLP)
Excerpt: as §1

[14] = Metabolite identification in samples (in vitro and in vivo); type: in vitro ADME; conditions: samples (in vitro and in vivo) from rats, dogs, and humans
Excerpt: as §2

[15] = test system: human hepatocytes; assay: In vitro metabolic stability in hepatocytes (human); type: in vitro ADME; conditions: ^14C-spiro-oxindole compound
Excerpt: as §2

[16] = Protein binding in human plasma; type: in vitro ADME
[17] = test system: CYP3A4; assay: Drug-drug interaction study in dogs, oral spiro-oxindole compound with iv midazolam as CYP3A4 substrate; type: in vivo; conditions: oral administration

Sequence of NaV1.7 (Q15858 whole entry): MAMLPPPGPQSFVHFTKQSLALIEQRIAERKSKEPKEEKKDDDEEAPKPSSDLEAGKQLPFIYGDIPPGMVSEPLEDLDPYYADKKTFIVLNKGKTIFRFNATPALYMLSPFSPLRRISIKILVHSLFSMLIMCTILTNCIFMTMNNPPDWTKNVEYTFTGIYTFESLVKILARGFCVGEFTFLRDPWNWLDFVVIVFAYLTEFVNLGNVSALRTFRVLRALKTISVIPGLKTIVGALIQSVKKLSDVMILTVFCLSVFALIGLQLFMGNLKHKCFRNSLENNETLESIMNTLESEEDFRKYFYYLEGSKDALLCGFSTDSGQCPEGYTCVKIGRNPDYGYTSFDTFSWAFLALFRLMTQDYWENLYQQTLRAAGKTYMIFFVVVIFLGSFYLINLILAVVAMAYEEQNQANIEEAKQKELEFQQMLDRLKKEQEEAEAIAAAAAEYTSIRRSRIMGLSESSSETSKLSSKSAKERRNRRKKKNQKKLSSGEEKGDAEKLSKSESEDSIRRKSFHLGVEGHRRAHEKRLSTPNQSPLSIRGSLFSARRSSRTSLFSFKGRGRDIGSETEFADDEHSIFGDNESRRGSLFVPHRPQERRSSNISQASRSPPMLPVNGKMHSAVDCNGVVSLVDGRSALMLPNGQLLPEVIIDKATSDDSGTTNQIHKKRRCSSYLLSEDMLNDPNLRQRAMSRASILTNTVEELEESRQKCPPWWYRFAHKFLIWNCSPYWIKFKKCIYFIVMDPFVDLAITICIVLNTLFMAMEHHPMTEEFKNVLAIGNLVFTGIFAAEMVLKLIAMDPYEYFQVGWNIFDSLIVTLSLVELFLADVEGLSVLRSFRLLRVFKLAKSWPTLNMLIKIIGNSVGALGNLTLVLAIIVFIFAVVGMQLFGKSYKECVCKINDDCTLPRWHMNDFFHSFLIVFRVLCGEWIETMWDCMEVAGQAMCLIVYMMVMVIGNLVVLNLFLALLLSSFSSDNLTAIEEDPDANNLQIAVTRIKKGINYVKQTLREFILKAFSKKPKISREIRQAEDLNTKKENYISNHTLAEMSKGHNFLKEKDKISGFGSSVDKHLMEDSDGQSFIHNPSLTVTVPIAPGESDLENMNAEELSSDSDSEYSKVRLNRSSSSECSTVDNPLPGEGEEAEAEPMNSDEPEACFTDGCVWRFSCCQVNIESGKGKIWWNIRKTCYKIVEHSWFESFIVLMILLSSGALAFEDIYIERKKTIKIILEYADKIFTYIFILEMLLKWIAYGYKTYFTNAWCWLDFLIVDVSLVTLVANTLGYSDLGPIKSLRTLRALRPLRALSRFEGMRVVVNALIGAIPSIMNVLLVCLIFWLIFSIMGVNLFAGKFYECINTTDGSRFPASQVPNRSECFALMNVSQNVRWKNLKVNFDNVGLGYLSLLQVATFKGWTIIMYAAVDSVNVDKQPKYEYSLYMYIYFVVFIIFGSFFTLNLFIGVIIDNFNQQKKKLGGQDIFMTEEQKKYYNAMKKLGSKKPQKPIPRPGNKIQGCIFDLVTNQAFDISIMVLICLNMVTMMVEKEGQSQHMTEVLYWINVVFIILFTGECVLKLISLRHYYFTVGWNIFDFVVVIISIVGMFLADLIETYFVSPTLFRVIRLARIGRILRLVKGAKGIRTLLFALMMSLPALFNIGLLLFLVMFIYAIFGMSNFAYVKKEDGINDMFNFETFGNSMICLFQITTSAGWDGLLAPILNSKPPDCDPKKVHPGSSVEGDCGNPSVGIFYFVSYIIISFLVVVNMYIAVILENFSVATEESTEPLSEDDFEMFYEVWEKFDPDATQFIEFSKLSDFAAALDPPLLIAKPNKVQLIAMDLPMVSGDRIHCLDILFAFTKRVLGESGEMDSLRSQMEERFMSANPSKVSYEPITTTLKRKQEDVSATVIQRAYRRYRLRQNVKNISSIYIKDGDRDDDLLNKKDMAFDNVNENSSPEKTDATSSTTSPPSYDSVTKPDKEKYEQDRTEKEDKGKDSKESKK
Sequence of CYP450 2C9 (P11712 whole entry): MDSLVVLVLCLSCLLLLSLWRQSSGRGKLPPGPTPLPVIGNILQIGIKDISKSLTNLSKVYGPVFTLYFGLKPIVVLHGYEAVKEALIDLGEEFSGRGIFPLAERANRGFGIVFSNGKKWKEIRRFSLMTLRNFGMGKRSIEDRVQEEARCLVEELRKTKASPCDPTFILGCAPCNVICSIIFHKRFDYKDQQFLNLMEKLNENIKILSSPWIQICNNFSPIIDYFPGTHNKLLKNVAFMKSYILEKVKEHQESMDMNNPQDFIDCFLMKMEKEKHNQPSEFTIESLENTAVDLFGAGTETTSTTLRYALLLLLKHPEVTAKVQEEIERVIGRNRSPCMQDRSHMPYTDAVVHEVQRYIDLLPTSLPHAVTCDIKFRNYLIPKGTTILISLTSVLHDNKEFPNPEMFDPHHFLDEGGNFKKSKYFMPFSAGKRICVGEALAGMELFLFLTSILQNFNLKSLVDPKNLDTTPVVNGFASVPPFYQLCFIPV

**Q.** Which genotoxicity [1] does the source give for O=C1N(Cc2ccc(C(F)(F)F)o2)c2ccccc2[C@]12COc1cc3c(cc12)OCO3 [spiro-oxindole compound, (S)-1′-{[5-(trifluoromethyl)furan-2-yl]methyl}spiro[furo[2,3-f][1,3]benzodioxole-7,3′-indol]-2′(1′H)-one] here?
**A.** not genotoxic

**Q.** What about the “inhibition of CYP450 enzymes” value [2] of the same compound?
**A.** may inhibit several CYP450 enzymes including CYP3A4; also recorded: inhibitor of several CYP450 enzymes

**Q.** What about the “contribution to spiro-oxindole compound metabolism” value [3] of the same compound?
**A.** limited or no involvement

**Q.** And the “efficacy compared with 5% lidocaine” value [4]?
**A.** superior efficacy to 5% lidocaine

**Q.** And the “in vitro metabolic stability in hepatocytes” value (“in vitro metabolic stability” for short) [5]?
**A.** 16%

**Q.** What about the Cmax ([6]; female minipigs) of the same compound?
**A.** 20 ng/mL

**Q.** And the AUC(0-t) ([6]; female minipigs)?
**A.** 382 ng·h/mL

**Q.** What about the Cmax ([6]; male minipigs) of the same compound?
**A.** 21 ng/mL

**Q.** And the AUC(0-t) ([6]; male minipigs)?
**A.** 365 ng·h/mL

**Q.** And the protein bound [7]?
**A.** 98.3%

**Q.** What about the “minimum effective dose associated with pain relief” value [8] of the same compound?
**A.** 2 % (w/w)

**Q.** What about the phototoxicity potential [9] of the same compound?
**A.** did not show phototoxicity potential

**Q.** And the “in vitro metabolic stability” value [10]?
**A.** 61%

**Q.** And the protein bound [11]?
**A.** 99.6%

**Q.** And the “potency of block against NaV1.7, inactivated state compared with resting state” value [12]?
**A.** approximately 220 fold

**Q.** And the genotoxicity [13]?
**A.** not genotoxic

**Q.** What about the “total number of metabolites identified” value [14] of the same compound?
**A.** 8 metabolites

**Q.** What about the “in vitro metabolic stability” value [15] of the same compound?
**A.** 80%

**Q.** What about the protein bound [16] of the same compound?
**A.** 99.4%

**Q.** What about the “spiro-oxindole compound plasma concentrations without evidence of a DDI” value [17] of the same compound?
**A.** up to 752 ng/mL and ≤ 1.8 μM

**Q.** What about the “drug-drug interaction with iv midazolam (CYP3A4 substrate)” value ([17]; plasma concentrations up to 752 ng/mL (i.e., 1.8 μM)) of the same compound?
**A.** no evidence of a DDI
